BindingDB's records for doi:10.1111/j.1747-0285.2008.00719.x (The Burnham Institute For Medical Research, 2008)

Target: T1, Phosducin-like protein 3 (Homo sapiens, UniProt Q9H2J4)
T1 sequence (Q9H2J4 whole entry): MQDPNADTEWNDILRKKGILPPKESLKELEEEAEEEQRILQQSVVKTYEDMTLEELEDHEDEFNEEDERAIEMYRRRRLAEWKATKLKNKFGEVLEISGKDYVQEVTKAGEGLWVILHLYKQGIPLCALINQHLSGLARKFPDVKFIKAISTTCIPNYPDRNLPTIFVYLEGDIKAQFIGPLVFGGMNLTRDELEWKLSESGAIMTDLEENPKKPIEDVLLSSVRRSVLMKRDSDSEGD
Assay: NMR Screening Assay
Settings: pH 7.5; 27 °C
Excerpt: NMR-based screen of potential binders by using 1D Aliphatic 1H NMR experiment to investigate the potential role of the c-VIAF as a possible drug target viral infections validation and functional studies.

| Kd [µM] | Compound |
| --- | --- |
| > 1000 | CCOC(=O)C(CC)n1cnc2sc3c(c2c1=O)CCCC3 (configuration not stated) [BI-86-E8] |
| > 1000 | O=c1[nH]nnc2sc3c(c12)CCCC3 [BI-86-F3] |
| 76 | CCOC(=O)C(C)n1cnc2sc3c(c2c1=O)CCCC3 (configuration not stated) [BI-86-E12] |
| > 1000 | O=C(Cn1cnc2sc3c(c2c1=O)CCCC3)OCc1ccccc1 [BI-86-F2] |
| 227 | CCOC(=O)Cn1cnc2sc3c(c2c1=O)CCC3 [2-(1-keto-7,8-dihydro-6H-cyclopenta[2,3]thieno[2,4-d]pyrimidin-2-yl)acetic acid ethyl ester] |
| > 1000 | CC(C)COC(=O)Cn1cnc2sc3c(c2c1=O)CCCC3 [BI-86-E11] |
| 16.5 | CCOC(=O)Cn1cnc2sc3c(c2c1=O)CCCC3 [BI-86-E6] |
